Source: patent US12336991B2, “Factor XIIA inhibitors” (UNIVERSITY OF LEEDS, priority 2018, dated 2025)

How the values were obtained:
Format in all cases: biochemical
FXIIa = biological target: T1, FXIIa (Homo sapiens, UniProt P00748); test: Determination of Factor XIIa inhibition, chromogenic substrate S-2302 assay; details: human FXIIa alpha
T1 sequence (P00748 373-615 limits assumed): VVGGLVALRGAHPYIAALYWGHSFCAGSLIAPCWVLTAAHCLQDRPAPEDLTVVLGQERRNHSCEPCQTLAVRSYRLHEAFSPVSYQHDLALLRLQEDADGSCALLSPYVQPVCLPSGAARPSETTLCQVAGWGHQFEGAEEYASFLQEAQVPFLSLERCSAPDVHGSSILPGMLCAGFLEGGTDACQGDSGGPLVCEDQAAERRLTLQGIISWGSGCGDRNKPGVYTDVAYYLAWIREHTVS
T1 sequence (P00748 20-372 partner limits assumed): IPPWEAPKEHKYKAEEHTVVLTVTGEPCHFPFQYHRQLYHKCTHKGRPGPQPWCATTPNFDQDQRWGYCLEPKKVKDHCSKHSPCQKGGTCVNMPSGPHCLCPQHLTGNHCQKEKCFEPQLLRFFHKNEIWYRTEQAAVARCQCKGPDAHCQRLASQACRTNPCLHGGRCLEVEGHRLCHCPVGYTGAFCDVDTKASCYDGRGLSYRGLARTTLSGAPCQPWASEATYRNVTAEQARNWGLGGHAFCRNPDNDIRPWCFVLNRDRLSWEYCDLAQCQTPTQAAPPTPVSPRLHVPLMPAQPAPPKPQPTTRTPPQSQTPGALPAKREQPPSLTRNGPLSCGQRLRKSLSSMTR
How it was run: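 FXIIa (10 nM) preincubated with compound 10 min at 37° C. in 50 mM Tris, 137 mM NaCl pH 7.4, 5% DMSO, top concentration 500 μM, then S-2302 added ([…]). Absorbance at 405 nm read kinetically for 3 h; IC50 from initial rates, converted to Ki by Cheng-Prusoff.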

thrombin = biological target: T2, thrombin (Homo sapiens, UniProt P00734); test: Determination of selectivity: thrombin inhibition, chromogenic substrate GPR assay; details: fold selectivity for FXIIa over thrombin
T2 construct: FXa (5 nM) and thrombin (5 nM)
How it was run: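 Thrombin (5 nM) preincubated with compound 10 min at 37 °C in 50 mM Tris, 137 mM NaCl, pH 7.4, 5% DMSO, then GPR substrate ([…]) added. Absorbance at 405 nm read kinetically for 3 h; IC50 from initial rates, converted to Ki via Ki=IC50/(1+[S]/Km).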

FXa = FXa (Homo sapiens, UniProt P00742); test: Determination of selectivity: FXa inhibition, chromogenic substrate S2765 assay; details: fold selectivity for FXIIa over FXa
How it was run: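 Human FXa (5 nM) preincubated with compound (top 500 μM, 5% DMSO) 10 min at 37 °C in 50 mM Tris, 137 mM NaCl pH 7.4, then S2765 ([…]) added; A405 kinetics over 3 h at 37 °C. IC50 from initial rates, converted to Ki via Cheng-Prusoff.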

Chain of FXa (P00742 235-488 limits assumed): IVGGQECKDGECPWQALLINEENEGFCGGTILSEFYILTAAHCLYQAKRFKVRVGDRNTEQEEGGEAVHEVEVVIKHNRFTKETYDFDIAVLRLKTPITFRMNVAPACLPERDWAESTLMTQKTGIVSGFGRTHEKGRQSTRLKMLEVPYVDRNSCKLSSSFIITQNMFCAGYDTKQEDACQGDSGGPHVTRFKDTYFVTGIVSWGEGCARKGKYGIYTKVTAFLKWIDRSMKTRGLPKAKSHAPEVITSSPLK
Chain of FXa (P00742 41-179 partner limits assumed): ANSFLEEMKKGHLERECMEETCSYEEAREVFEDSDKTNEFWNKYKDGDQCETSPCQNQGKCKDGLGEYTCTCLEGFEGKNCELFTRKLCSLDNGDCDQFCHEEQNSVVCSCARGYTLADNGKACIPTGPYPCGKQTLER

SMILES	Ki (FXIIa) [nM]	Thrombin (human)/FXIIa alpha (human) (thrombin)	FXa (human)/FXIIa alpha (human) (FXa)
Cn1nnc2cc(CNC(=O)[C@@H]3C[C@@H](Cc4ccncc4)CN3C(=O)[C@@H](CCC(=O)N3CCCC3)NS(C)(=O)=O)ccc21 [Example M05268]	> 2000	+++ (fold selectivity values greater than 100)	∘∘∘
Cn1nnc2cc(CNC(=O)[C@@H]3C[C@@H](Cc4ccncc4)CN3C(=O)[C@@H](CCC(=O)N3CCCC3)NCC(F)F)ccc21 [Example M05269]	> 2000	++ (fold selectivity value of 10 to 100)	∘∘
Cn1nnc2cc(CNC(=O)[C@@H]3C[C@@H](Cc4ccncc4)CN3C(=O)[C@@H](CCC(=O)N3CCCC3)NCC(F)(F)F)ccc21 [Example M05271]	> 2000	++ (fold selectivity value of 10 to 100)	∘∘
COc1ccc(C[C@@H]2C[C@@H](C(=O)NCc3ccc4c(c3)nnn4C)N(C(=O)[C@H](N)CCC(=O)N3CCCC3)C2)cc1 [Example M05272]	< 200	+++ (fold selectivity values greater than 100)	∘∘∘
Cn1nnc2cc(CNC(=O)[C@@H]3C[C@@H](Cc4cc(F)cc(F)c4)CN3C(=O)[C@H](N)CCC(=O)N3CCCC3)ccc21 [Example M05274]	200 to 2000	+++ (fold selectivity values greater than 100)	∘∘∘
Cc1nn(C)c2ccc(CNC(=O)[C@@H]3C[C@@H](Cc4ccncc4)CN3C(=O)[C@H](N)CCC(=O)N3CCCC3)cc12 [Example M05278]	200 to 2000	++ (fold selectivity value of 10 to 100)	∘∘∘
Cn1nnc2cc(CNC(=O)[C@@H]3C[C@H](C(F)(F)F)CN3C(=O)[C@H]3C[C@@H](c4ccccc4)CN3)ccc21 [Example M05280]	> 2000	++ (fold selectivity value of 10 to 100)	∘∘
Nc1nccc2cc(CNC(=O)[C@@H]3C[C@H](c4ccccc4)CN3C(=O)[C@H](N)CCC(=O)N3CCCC3)ccc12 [Example M05281]	200 to 2000	++ (fold selectivity value of 10 to 100)	∘
Nc1nccc2cc(CNC(=O)[C@@H]3C[C@@H](c4ccccc4)CN3C(=O)[C@H](N)CCC(=O)N3CCCC3)ccc12 [Example M05282]	200 to 2000	++ (fold selectivity value of 10 to 100)	∘
Cn1nnc2cc(CNC(=O)[C@@H]3C[C@@H](Cc4ccncc4)CN3C(=O)[C@H]3C[C@@H](c4ccccc4)CN3)ccc21 [Example M05288]	> 2000	++ (fold selectivity value of 10 to 100)	∘∘∘
COc1ccc(C[C@@H]2C[C@@H](C(=O)NCc3ccc4c(c3)nnn4C)N(C(=O)[C@H]3C[C@@H](c4ccccc4)CN3)C2)cc1 [Example M05289]	200 to 2000	+++ (fold selectivity values greater than 100)	∘∘∘
Cn1nnc2cc(CNC(=O)[C@@H]3C[C@@H](Cc4ccncc4)CN3C(=O)[C@@H](CCC(=O)N3CCCC3)NS(=O)(=O)c3ccccc3)ccc21 [Example M05290]	> 2000	+++ (fold selectivity values greater than 100)	∘∘
Cn1nnc2cc(CNC(=O)[C@@H]3C[C@@H](CC4CCCC4)CN3C(=O)[C@H](N)CCC(=O)N3CCCC3)ccc21 [Example M05291]	200 to 2000	+++ (fold selectivity values greater than 100)	∘∘∘
Cn1nnc2cc(CNC(=O)[C@@H]3C[C@H](CC4CCOCC4)CN3C(=O)[C@H](N)CCC(=O)N3CCCC3)ccc21 [Example M05293]	> 2000	++ (fold selectivity value of 10 to 100)	∘∘
Cn1nccc1C[C@H]1C[C@@H](C(=O)NCc2ccc3c(c2)nnn3C)N(C(=O)[C@H](N)CCC(=O)N2CCCC2)C1 [Example M05294]	200 to 2000	++ (fold selectivity value of 10 to 100)	∘∘∘
Cn1nnc2cc(CNC(=O)[C@@H]3CC(Cc4ccc(F)c(Cl)c4F)CN3C(=O)[C@H](N)CCC(=O)N3CCCC3)ccc21 (stereo partly drawn) [Example M05295]	200 to 2000	+++ (fold selectivity values greater than 100)	∘∘∘
Cn1nnc2cc(CNC(=O)[C@@H]3C[C@H](Cc4ccccn4)CN3C(=O)[C@H](N)CCC(=O)N3CCCC3)ccc21 [Example M05296]	200 to 2000	+++ (fold selectivity values greater than 100)	∘∘∘
Cn1ccnc1CC1C[C@@H](C(=O)NCc2ccc3c(c2)nnn3C)N(C(=O)[C@H](N)CCC(=O)N2CCCC2)C1 (stereo partly drawn) [Example M05297]	200 to 2000	+++ (fold selectivity values greater than 100)	∘∘∘
COc1ccc(CC2C[C@@H](C(=O)NCc3ccc4c(c3)nnn4C)N(C(=O)[C@H](N)CCC(=O)N3CCCC3)C2)cc1Cl (stereo partly drawn) [Example M05298]	< 200	+++ (fold selectivity values greater than 100)	∘∘∘
COc1cccc(CC2C[C@@H](C(=O)NCc3ccc4c(c3)nnn4C)N(C(=O)[C@H](N)CCC(=O)N3CCCC3)C2)c1 (stereo partly drawn) [Example M05300]	200 to 2000	+++ (fold selectivity values greater than 100)	∘∘∘
COc1ccc(C[C@@H]2C[C@@H](C(=O)NCc3ccc4c(c3)nnn4C)N(C(=O)[C@H](N)CCc3ccccc3)C2)cc1 [Example M05302]	200 to 2000	+++ (fold selectivity values greater than 100)	∘∘∘
Cn1nnc2cc(CNC(=O)[C@@H]3CC(Cc4ccnc(C(F)(F)F)c4)CN3C(=O)[C@H](N)CCC(=O)N3CCCC3)ccc21 (stereo partly drawn) [Example M05303]	200 to 2000	++ (fold selectivity value of 10 to 100)	∘∘∘
COc1cncc(CC2C[C@@H](C(=O)NCc3ccc4c(c3)nnn4C)N(C(=O)[C@H](N)CCC(=O)N3CCCC3)C2)c1 (stereo partly drawn) [Example M05304]	200 to 2000	+++ (fold selectivity values greater than 100)	∘∘∘
Cn1nnc2cc(CNC(=O)[C@@H]3CC(Cc4ccc(OC(F)(F)F)cc4)CN3C(=O)[C@H](N)CCC(=O)N3CCCC3)ccc21 (stereo partly drawn) [Example M05306, (S)-1-((R)-2-Amino-5-oxo-5-pyrrolidin-1-yl-pentanoyl)-4-(4-trifluoromethoxy-benzyl)-pyrrolidine-2-carboxylicacid (1-methyl-1H-benzotriazol-5-ylmethyl)-amide]	< 200	+++ (fold selectivity values greater than 100)	∘∘∘
Cn1nnc2cc(CNC(=O)[C@@H]3CCCN3C(=O)[C@H](N)CCC(=O)N3CCCC3)ccc21 [Example M05308]	> 2000	++ (fold selectivity value of 10 to 100)	∘∘
Cn1nnc2cc(CNC(=O)[C@@H]3CC(Cc4ccc(C(F)(F)F)cc4)CN3C(=O)[C@H](N)CCC(=O)N3CCCC3)ccc21 (stereo partly drawn) [Example M05309]	200 to 2000	+++ (fold selectivity values greater than 100)	∘∘∘
Cn1nnc2cc(CNC(=O)[C@@H]3CC(Cc4ccc(C#N)cc4)CN3C(=O)[C@H](N)CCC(=O)N3CCCC3)ccc21 (stereo partly drawn) [Example M05312]	200 to 2000	+++ (fold selectivity values greater than 100)	∘∘∘
Cn1nnc2cc(CNC(=O)[C@@H]3CC(Cc4ccnc(F)c4)CN3C(=O)[C@H](N)CCC(=O)N3CCCC3)ccc21 (stereo partly drawn) [Example M05314]	200 to 2000	++ (fold selectivity value of 10 to 100)	∘∘∘
Cn1nnc2cc(CNC(=O)[C@@H]3CC(Cc4ccnc(F)c4)CN3C(=O)[C@H](N)CCC(=O)N3CCCC3)ccc21 (stereo partly drawn) [Example M05315]	> 2000	++ (fold selectivity value of 10 to 100)	∘∘
